From patent publication US12383585B2, “Methods of treatment of infections using bacteria” (Decoy Biosystems, Inc., priority 2018, dated 2025) come the findings set out here.

For data set [1], the system named is AAV/HBV (human HBV genome, genotype D). The data set can be described thus: AAV/HBV mouse model, long-term HBV inhibition with indomethacin (Example 5). It is filed as in vivo, C57BL/6 mouse. The conditions noted are these: for inhibition of HBV DNA production (plasma): all groups given indomethacin 10 μg/mL in drinking water, ETV 0.1 mg/kg. The protocol: This experiment was conducted in order to determine if a non-steroidal anti-inflammatory drug (NSAID) could enhance anti-viral activity by Decoy bacteria, if the anti-viral activity of Decoy is lost after cessation of treatment, and the potential toxic effects of ETV, Decoy and ETV+Decoy treatment. The experiment was carried out as described in Example 4, except that the AAV/HBV virus was injected at day −29, relative to start of dosing. HBV-DNA, HBsAg and HBeAg levels in plasma were determined on days −15, −8 and −1, relative to start of dosing on day 0, and the ETV dose was increased to 0.1 mg/kg. In addition, all groups represented in FIGS. 3, 4, 5 and 6 were administered indomethacin (NSAID) daily (10 μg/mL in drinking water). Dosing was carried out for 5 weeks as in Example 4, with plasma levels of HBV-DNA, HBsAg and HBeAg determined weekly, as well as every other week for 27 weeks after cessation of treatment. Inhibitory activity was determined by comparing treated groups at each time point to the control (indomethacin alone) group at the same time-point by unpaired, non-parametric Mann-Whitney statistical analysis.
Upon termination, the liver from each mouse was divided into multiple sections, snap frozen in liquid nitrogen immediately upon collection and stored at −80° C. Liver sections were used for HBV DNA detection and additional sections from each mouse liver were fixed in 10% neutral buffered formalin (NB F) for about 24 hours, then transferred for routine dehydration and paraffin embedding. Paraffin blocks were sectioned for hematoxylin-eosin (H&E) staining and pathology analysis, as well immunohistochemistry (IHC) analysis for HBsAg and HBcAg.

Data set [2] has the same test system. Nature of the data set: AAV/HBV mouse model, HBV inhibition (Example 4). Format: in vivo, C57BL/6 mouse. The conditions noted are these: for inhibition of HBeAg production (plasma): day 28 of dosing (Day 59 after infection). The source says: Adeno-associated virus/hepatitis B virus (AAV/HBV) is a recombinant AAV carrying replicable human HBV genome. Taking the advantage of the highly hepatotropic feature of genotype 8 AAV, the human HBV genome can be efficiently delivered to mouse liver cells. Infection of immune competent mice with AAV/HBV can result in long term HBV viremia, including release of human HBV virions, HBsAg and HBeAg into the blood, which mimics chronic HBV infection in patients. The AAV/HBV model can be used to evaluate the in vivo activity of various types of anti-HBV agents. Furthermore, this is an appropriate model for evaluation of immune modulators (see, for example Huang et al., Int. J. Onc. v39 pp1511-1519, 2011).
rAAV8-1.3HBV, genotype D, was purchased from Beijing FivePlus Molecular Medicine Institute (batch number A2018092406). The stock virus of 1×10^12 viral genome (v.g.)/mL was diluted to 5×10^11 v.g./mL with sterile phosphate-buffered saline (PBS) and 1×10^11 v.g. AAV/HBV in 200 μL was injected per 5 week old male C57BL/6 mouse 31 days prior to the initiation of dosing (day −31).
Blood samples (˜100 μL) were collected into K2-EDTA coated tubes via submandibular bleeding on days −17, −7 and −4. The samples were centrifuged at 7,000 g (4° C.) for 10 minutes for plasma collection. At least 40 μL plasma samples were prepared to determine the level of HBV-DNA by qPCR, and the levels of HBs Antigen (HBsAg) and HBe Antigen (HBeAg) by enzyme-linked immunosorbent assay (ELISA). Remaining plasma samples were stored at −80° C. for post-life assays. Based on the plasma levels of HBV DNA, HBsAg, HBeAg and body weights on days −17, −7 and −4, mice with qualified viral infection levels were selected and randomly divided into 7 groups with 5 mice in each group on day −1. All mice were evenly distributed in each group, to ensure no significant difference existed between each group in terms of HBV DNA, HBsAg, HBeAg level and body weight on day −4.
Animal groups were untreated, treated with Entecavir (ETV) at 0.005 mg/kg orally (p.o.) daily on days 0-34, Decoy at 2×10^8 killed bacteria per mouse administered tail vein i.v. on days 1, 2, 8, 9, 15, 16, 22, 23, 29 and 30, or ETV and Decoy. Plasma samples were obtained weekly an analyzed for HBV-DNA, HBsAg and HBeAg as described above.

Data set [3] has as its system human peripheral blood mononuclear cells (PBMCs). Nature of the data set: Induction of cytokine secretion from human PBMCs in vitro (Luminex). Format: cell-based. The conditions noted are these: full titration peak mean. The protocol:
Supernatants were harvested by centrifuging plates at 1,000 rpm for 10 minutes and stored at −80° C. Luminex analysis of cytokine levels was carried out with Millipore Human Cytokine/Chemokine Magnetic Bead panels HCYTOMAG-60K and HSTCMAG-28SK. Levels of cytokines were interpolated off a standard curve using a […] non-linear regression analysis where the fit=(A+((B−A)/(1+(((B−E)/(E−A))*((x/C)^D))))). The interpolated data was normalized to vehicle control or unstimulated control and analyzed. PBMCs from fresh normal peripheral blood leukapheresis paks (ALLCells, Alameda, CA) were isolated using a Ficoll gradient (Ficoll-Paque PLUS, Cat #17-144-02, density 1.077+/−0.001 g/mL from GE Healthcare Bio-Sciences, Pittsburgh, PA). The bacteria vehicle was phosphate-buffered saline (PBS) with no calcium and 2 mM MgCl2.
The experiment was carried out as described for Table 1.

Some results are limits rather than exact numbers.

Consider `C=C1[C@H](CO)[C@@H](O)C[C@@H]1n1cnc2c(=O)[nH]c(N)nc21` [ETV, Entecavir], for which, in data set [1] (27 weeks after cessation of treatment, in the presence of indomethacin), the “inhibition of HBV DNA at termination (day 253)” value is listed as “Statistically significant inhibition of HBV DNA was lost”. For the same compound, in data set [1] (27 weeks after the cessation of treatment, in the presence of indomethacin), the “inhibition of HBeAg expression in mouse livers” value was “not”. In data set [1] (ETV treatment 0.1 mg/kg, with indomethacin), the body weight loss result is on record as “No body weight loss”. Moreover, the “inhibition of HBV DNA production (plasma)” value is “inhibited” in data set [1] and “significantly inhibited” in data set [2] (vs no treatment group, ETV 0.005 mg/kg p.o. daily, Decoy 2×10^8 killed bacteria i.v. twice weekly). Besides, the “time to significant inhibition of HBV DNA production after initiation of dosing” value in data set [2] (ETV 0.005 mg/kg p.o. daily) is given as no more than 3 days. The “mice with plasma HBV DNA down to the lower limit of quantitation (120 copies/μL plasma)” value in data set [2] (by day 28 of dosing (day 59 after infection)) is on record as 5/5. The “inhibition of HBeAg production (plasma)” value was “No inhibition” in data set [2] (without indomethacin) and “not” in data set [2] (without indomethacin, listed as Entecavir). In data set [2] (without indomethacin), the “inhibition of HBsAg production (plasma)” value is listed as “No inhibition”.

With `COc1ccc2c(c1)c(CC(=O)O)c(C)n2C(=O)c1ccc(Cl)cc1` [indomethacin], in data set [1], the “inhibition of HBV DNA production (plasma)” value is “did not inhibit”.

In data set [3], CpG ODN 2006 showed a GM-CSF induction of 0 pg/mL, an IFNγ induction of 7 pg/mL, an IL-1β induction of 1 pg/mL and an IL-6 induction of 241 pg/mL. For the same compound, in data set [3], the IL-8 induction is on record as 2,436 pg/mL, the IL-10 induction was 374 pg/mL, the IL-12p70 induction is recorded as 4 pg/mL and the TNFα induction was found to be 51 pg/mL.

With Poly(I:C), in data set [3], the GM-CSF induction came out at 0 pg/mL, the IFNγ induction is reported as 103 pg/mL, the IL-1β induction worked out at 22 pg/mL and the IL-6 induction is listed as 129 pg/mL. Besides, in data set [3], the IL-8 induction is recorded as 1,452 pg/mL, the IL-10 induction worked out at 8 pg/mL, the IL-12p70 induction is 18 pg/mL and the TNFα induction is reported as 208 pg/mL.
